For this assay, the target named is T1, human TRPV4 (Homo sapiens, UniProt Q9HBA0).
T1 construct: expressed in transfected cells; host or cells: HEK-293-MSR-II cells transduced with 1% BacMam virus
The experiment in a line: Ligand-gated assay (FLIPR calcium, Fluo4). It is filed as cell-based. Conditions: HEK-293-MSR-II cells transduced with BacMam human TRPV4; inhibition of agonist (EC80)-induced activation; read-out: Human TRPV4 FLIPR pIC50 (converted). How it is done:
TRP channel activation/opening results in an influx of divalent and monovalent cations including calcium. The resulting changes in intracellular calcium are monitored using a calcium selective fluorescent dye Fluo4 (MDS Analytical Technologies). Dye loaded cells were initially exposed to test compound to verify a lack of agonist activity. Cells were subsequently activated by addition of an agonist and inhibition of the agonist-induced activation was recorded. Human embryonic kidney 293 cells stably expressing the macrophage scavenger receptor class II (HEK-293-MSR-II) and transduced with 1% BacMam (J. P. Condreay, S. M. Witherspoon, W. C. Clay and T. A. Kost, Proc Natl Acad Sci 96 (1999), pp. 127-132) virus expressing the human TRPV4 gene were plated at 15000 cells/well in a volume of 50 uL in a 384 well poly-D lysine coated plate. Cells were incubated for 24 hours at 37 degrees and 5% CO2. Media was then aspirated using a Tecan Plate-washer and replaced with 20 uL of dye loading buffer: HBSS, 500 uM Brilliant Black (MDS Analytical Technologies), 2 uM Fluo-4. Dye loaded plates were then incubated in the dark at room temperature for 1-1.5 hours. 10 uL of test compound diluted in HBSS+0.01% Chaps was added to the plate, incubated for 10 min at room temperature in the dark and then 10 uL of agonist was added at a final conc. equal to the agonist EC80. Calcium release was measured using the FLIPRtetra (MDS Analytical Technologies).

T1 sequence (Q9HBA0 whole entry): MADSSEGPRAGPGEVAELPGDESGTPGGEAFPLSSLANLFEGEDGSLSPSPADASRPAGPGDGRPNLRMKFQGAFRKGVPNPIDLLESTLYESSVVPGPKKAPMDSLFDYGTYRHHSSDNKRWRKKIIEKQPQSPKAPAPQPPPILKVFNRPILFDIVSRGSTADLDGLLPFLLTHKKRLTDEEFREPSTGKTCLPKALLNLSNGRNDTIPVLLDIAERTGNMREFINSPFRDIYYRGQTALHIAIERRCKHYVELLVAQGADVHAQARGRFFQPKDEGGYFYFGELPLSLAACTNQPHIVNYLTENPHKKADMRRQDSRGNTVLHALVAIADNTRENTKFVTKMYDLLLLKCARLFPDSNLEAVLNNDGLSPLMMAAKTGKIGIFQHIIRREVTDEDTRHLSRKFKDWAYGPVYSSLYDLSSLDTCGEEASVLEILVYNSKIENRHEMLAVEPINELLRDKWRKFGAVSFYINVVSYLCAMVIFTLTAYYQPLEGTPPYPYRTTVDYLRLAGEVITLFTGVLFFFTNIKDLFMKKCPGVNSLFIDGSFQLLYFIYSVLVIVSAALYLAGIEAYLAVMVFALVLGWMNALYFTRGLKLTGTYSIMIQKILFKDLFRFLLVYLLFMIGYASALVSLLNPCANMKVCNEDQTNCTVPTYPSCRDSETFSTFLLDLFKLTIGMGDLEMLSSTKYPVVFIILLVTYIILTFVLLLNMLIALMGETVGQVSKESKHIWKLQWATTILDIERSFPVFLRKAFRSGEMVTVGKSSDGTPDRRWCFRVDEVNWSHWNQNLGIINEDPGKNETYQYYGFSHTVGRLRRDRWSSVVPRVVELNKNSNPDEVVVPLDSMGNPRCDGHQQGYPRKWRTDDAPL

In the case of `CC(C)Oc1cc2nc(-c3cccc(C(F)(F)F)c3)c(CN3CCC(N4CCOCC4)CC3)c(C(=O)N[C@H](c3ccccc3)C(F)(F)F)c2cc1S(C)(=O)=O` [Example 20, 7-[(1-methylethyl)oxy]-6-(methylsulfonyl)-3-{[4-(4-morpholinyl)-1-piperidinyl]methyl}-2-[3-(trifluoromethyl)phenyl]-N-[(1R)-2,2,2-trifluoro-1-phenylethyl]-4-quinolinecarboxamide], the IC50 was 6.31 nM.

`COc1cc2nc(-c3cccc(C(F)(F)F)c3)c(CN3CCC(N4CCOCC4)CC3)c(C(=O)N[C@H](c3ccccc3)C(F)(F)F)c2cc1S(=O)(=O)C(C)C` [Example 22, 6-[(1-methylethyl)sulfonyl]-7-(methyloxy)-3-{[4-(4-morpholinyl)-1-piperidinyl]methyl}-2-[3-(trifluoromethyl)phenyl]-N-[(1R)-2,2,2-trifluoro-1-phenylethyl]-4-quinolinecarboxamide]: the IC50 was 6.31 nM.

On to `CS(=O)(=O)c1ccc2nc(-c3cccc(C(F)(F)F)c3)c(CN3CCC(N4CCCCC4)CC3)c(C(=O)N[C@H](c3ccccc3)C(F)(F)F)c2c1` [Example 1, 3-(1,4′-bipiperidin-1′-ylmethyl)-6-(methylsulfonyl)-2-[3-(trifluoromethyl)phenyl]-N-[(1R)-2,2,2-trifluoro-1-phenylethyl]-4-quinolinecarboxamide], for which the IC50 is 3.16 nM.

`CC1CN(Cc2c(-c3cccc(C(F)(F)F)c3)nc3ccc(S(=O)(=O)C(C)C)cc3c2C(=O)N[C@H](c2ccccc2)C(F)(F)F)CCC1N1CCOCC1` (mixture of isomers) [Example 38, 6-[(1-methylethyl)sulfonyl]-3-{[3-methyl-4-(4-morpholinyl)-1-piperidinyl]methyl}-2-[3-(trifluoromethyl)phenyl]-N-[(1R)-2,2,2-trifluoro-1-phenylethyl]-4-quinolinecarboxamide]: the IC50 was 10 nM.

`CCOc1cc2nc(-c3cccc(C(F)(F)F)c3)c(CN3CCC(N4CCOCC4)CC3)c(C(=O)N[C@H](c3ccccc3)C(F)(F)F)c2cc1S(=O)(=O)C(C)C` [Example 23, 7-(ethyloxy)-6-[(1-methylethyl)sulfonyl]-3-{[4-(4-morpholinyl)-1-piperidinyl]methyl}-2-[3-(trifluoromethyl)phenyl]-N-[(1R)-2,2,2-trifluoro-1-phenylethyl]-4-quinolinecarboxamide]: the IC50 was 6.31 nM.

For the molecule `CCOc1cc2nc(-c3cccc(C(F)(F)F)c3)c(CN3CCC(N4CCOCC4)CC3)c(C(=O)N[C@H](c3ccccc3)C(F)(F)F)c2cc1S(=O)(=O)CC` [Example 26, 7-(ethyloxy)-6-(ethylsulfonyl)-3-{[4-(4-morpholinyl)-1-piperidinyl]methyl}-2-[3-(trifluoromethyl)phenyl]-N-[(1R)-2,2,2-trifluoro-1-phenylethyl]-4-quinolinecarboxamide], the IC50 was 10 nM.

`COc1cc2nc(-c3cccc(C(F)(F)F)c3)c(CN3CCC(N4CCCCC4)CC3)c(C(=O)N[C@H](c3ccccc3)C(F)(F)F)c2cc1S(=O)(=O)C(C)C` [Example 21, 3-(1,4′-bipiperidin-1′-ylmethyl)-6-[(1-methylethyl)sulfonyl]-7-(methyloxy)-2-[3-(trifluoromethyl)phenyl]-N-[(1R)-2,2,2-trifluoro-1-phenylethyl]-4-quinolinecarboxamide]: the IC50 was 3.98 nM.

Regarding `CCS(=O)(=O)c1cc2c(C(=O)N[C@H](c3ccccc3)C(F)(F)F)c(CN3CCC(N4CCCCC4)CC3)c(-c3cccc(C(F)(F)F)c3)nc2cc1OC` [Example 3, 3-(1,4′-bipiperidin-1′-ylmethyl)-6-(ethylsulfonyl)-7-(methyloxy)-2-[3-(trifluoromethyl)phenyl]-N-[(1R)-2,2,2-trifluoro-1-phenylethyl]-4-quinolinecarboxamide], the IC50 is 6.31 nM.

(Values after patent US8658636B2, “TRPV4 antagonists” (GlaxoSmithKline, LLC, priority 2010, dated 2014).)
